GI50 and TGI data for eleven compounds are collected here from PubChem BioAssay (NCI).

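Results reflect a 48-hour exposure of cells in 96-well plates to compound at five concentrations. GI50 = concentration required for 50% inhibition of growth. TGI marks complete inhibition of growth.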

Common to all, as to assay: DTP human tumour cell line panel, 48 h
For test [1], the system named is UO-31 renal.
Test [2] deals with SNB-75 CNS.
The subject of test [3] is SK-MEL-5 melanoma.
The test system of test [4] is HCT-15 colon.
The test system of test [5] is M14 melanoma.
In test [6] the test system is OVCAR-5 ovarian.
Test [7] relates to LOX IMVI melanoma.
Test [8] has as its system SW-620 colon.
The subject of test [9] is DU-145 prostate.
The test system of test [10] is RPMI-8226 leukemia.

By GI50 is commonly meant the concentration at which growth is held to half of that of the control. The term TGI denotes the concentration at which net growth stops. A low value points to more potent growth arrest.

Regarding `CCN1C(=O)N(CC)C2C1NN=c1s/c(=C3\C(=O)N(CC(C)(C)C)c4ccccc43)c(=O)n12` (configuration not stated), the GI50 in [1] is 3.65 µM; in test [2], 2.77 µM; in [3] it was 2.11 µM; in test [4] it was 3.31 µM; in test [5], 3.72 µM; in test [6] it was 6.18 µM. Further, the GI50 in [7] is 3.38 µM; in test [8] it was 4.75 µM; in test [9], 3.79 µM. Besides, the TGI in test [1] worked out at 18.2 µM; in test [2] it was 24.2 µM; in test [3], 5.21 µM; in test [4] it was 18.4 µM; in test [5], 20.7 µM; in test [6], 21.4 µM. Besides, the TGI in [7] came to 15.4 µM; in test [8], 21.9 µM; in [9], 18.6 µM.
For the compound `[N-]=[N+]=Nc1cc(=O)[nH]nc1-c1ccccc1`, the concentration for total growth inhibition (TGI) in test [10], in [1], in [2], in test [4], in [5] and in test [7] was above 100 µM throughout. In addition, the TGI in [8] and in [9] was above 100 µM throughout.
For the compound `C1=C\COCc2cc(ccc2OCCN2CCCC2)Nc2nccc(n2)-c2cccc(c2)COC/1`, the GI50 in test [10] was 3.12 µM; in test [1], 0.722 µM; in test [2], 1.64 µM; in test [4], 1.26 µM; in test [5], 1.75 µM; in test [6], 1.16 µM. The GI50 in test [7] is 0.847 µM; in test [8], 1.48 µM; in test [9], 1.55 µM. In addition, the TGI is 6.35 µM in [10]; 4.01 µM in test [1]; 4.75 µM in test [2]; 7.51 µM in test [4]; 4.72 µM in test [5]; 5.38 µM in test [6]. In addition, the TGI in test [7] was 2.88 µM; in test [8] it was 6.07 µM; in test [9], 5.53 µM.
Regarding `OCc1ccn2c1[C@@H](O)CC2`, the TGI in test [10], in [2], in [3], in test [4], in test [5] and in test [6] was above 100 µM throughout. Moreover, the TGI in test [7], in [8] and in test [9] was above 100 µM throughout.
`CCn1sc2ccccc2c1=O`: the TGI in [10] is above 100 µM; in [2], 26.6 µM; in [3], 25 µM; in test [4], 27.5 µM; in test [5], 12 µM; in test [6], above 27.5 µM. Further, the results for the TGI in test [7], in test [8] and in [9] were 7.73 µM, above 58.4 µM and 49.6 µM, respectively.
As for `COC(=O)/C=C/c1c(CC=C(C)C)ncn1C`, the TGI in [10] is above 100 µM; in test [1], above 92.7 µM; in test [2] it was 56 µM; in test [3] it was above 100 µM; in test [4], above 100 µM; in [5], above 100 µM. For the same compound, the concentration for total growth inhibition (TGI) in [6], in test [7] and in test [8] was above 100 µM in each case.
For `COc1cc(C=O)c(-c2cc(OC)c(OC)cc2C=O)cc1OC`, the TGI in [10], in [1], in [2], in test [3], in test [4] and in test [5] was above 100 µM throughout. For the same compound, the total growth inhibition concentration (TGI) in test [6] is above 100 µM; in test [7] it was 66 µM; in test [8] it was above 100 µM.
Turning to `NC(=O)OCCn1cc(-c2nc(-c3c[nH]c4ncccc34)cs2)c2ccccc21`, the GI50 in test [10] was 2.04 µM; in test [1], 0.621 µM; in test [3] it was 1.41 µM; in test [4] it was 1.92 µM; in test [5] it was 1.33 µM; in test [6] it was 2.21 µM. Also, the GI50 is 1.55 µM in [7], 1.3 µM in test [8] and 3.07 µM in test [9]. Moreover, the TGI in test [10] was 8.03 µM; in test [1], 4.65 µM; in test [3], 2.85 µM; in test [4], above 100 µM; in test [5], 4.53 µM; in test [6] it was 43.8 µM. Further, the TGI in test [7] turned out to be 4.11 µM; in test [8], 4.53 µM; in test [9] it was 26.1 µM.
With `O=C1OCC2C1C1c3ccccc3C(O)c3ccccc3C21` (configuration not stated), the TGI in [10], in test [1], in test [2], in [3], in test [4] and in test [5] was above 100 µM throughout. Further, the TGI in [6], in test [7] and in [8] was above 100 µM in each case.
Turning to `O=C(/C=C/c1ccccc1Cl)NC1C=Nc2ccc([N+](=O)[O-])cc2NC1` (configuration not stated), the TGI in [10], in [1], in test [2], in test [3], in [4] and in test [5] was above 100 µM each time. For the same compound, the TGI is above 100 µM in [6], above 100 µM in test [7] and 18.2 µM in [8].
Turning to `O=C1NC(=NCCc2cccc(Cl)c2)S/C1=C\c1ccc2ncccc2c1`, the GI50 in test [10] is above 25 µM; in test [1], above 25 µM; in test [2] it was above 25 µM; in test [3], above 25 µM; in [4], 1.08 µM; in test [5], above 25 µM. Moreover, the GI50 in test [6] and in [9] was above 25 µM throughout. The TGI in test [10], in test [1], in test [2], in test [3], in [4] and in [5] was above 25 µM each time. The TGI in test [6] and in [9] was above 25 µM throughout.
